{"source": "patent US20150045330A1", "about": "“PROPHYLACTIC AND THERAPEUTIC DRUG FOR AMYOTROPHIC LATERAL SCLEROSIS AND METHOD OF SCREENING THEREFOR” (priority 2012, published 2015)", "key": {"insoluble TDP-43": {"system": "insoluble TDP-43", "test": "Amount of TDP-43 protein insoluble in 1% Triton X-100 solution in ALS-MNs", "assay_type": "cell-based, human", "conditions": "AA addition, FIGS. 12G and H"}, "ALS-MNs [1]": {"system": "ALS-MNs", "test": "Length of neurite in HB9::GFP-positive ALS-MNs (IN Cell Analyzer 2000)", "assay_type": "cell-based, human", "conditions": "AA addition vs control group; FIGS. 12E and F"}, "NEFL": {"system": "NEFL", "test": "NEFL expression level in ALS-MNs (quantitative PCR)", "assay_type": "cell-based, human", "conditions": "AA addition"}, "NEFM": {"system": "NEFM", "test": "NEFM expression level in ALS-MNs (quantitative PCR)", "assay_type": "cell-based, human", "conditions": "AA addition"}, "[2]": {"system": "ALS-iPS cell-derived neurons", "test": "Gene expression category analysis (gene ontology) in ALS-iPS cell-derived neurons", "assay_type": "cell-based, human", "conditions": "AA addition vs non-addition; FIG. 13A"}, "[3]": {"system": "TNFα/NF-κB, andorogen receptor and α6β4 integrin pathways", "test": "Signal transduction pathway analysis in ALS-iPS cell-derived neurons", "assay_type": "cell-based, human", "conditions": "AA addition vs non-addition; FIG. 13B"}, "ALS-MNs [4]": {"system": "ALS-MNs", "test": "MDA (malondialdehyde)-modified protein in total protein by Western blotting", "assay_type": "cell-based, human", "conditions": "AA addition vs non-addition, particularly proteins of about 30 kDa to 50 kDa, FIG. 14", "source_text": "Sequentially, to confirm an antioxidant action of AA, the amount of the protein modified with MDA (malondialdehyde) in the total protein was confirmed by Western blotting using 5 to 15% gradient gel in the AA addition group and the AA non-addition group of control MNs or ALS-MNs. […] This tendency was particularly strong in proteins having a size of about 30 kDa to 50 kDa."}, "ALS-MNs [5]": {"system": "ALS-MNs", "test": "Arsenite-induced cell death of iPS cell-derived ALS motor neurons (HB9::GFP-positive cell number)", "assay_type": "cell-based, human", "conditions": "added 16 or 48 hr before arsenite addition, FIG. 12D"}, "ALS-MNs [6]": {"system": "ALS-MNs"}}, "data": [{"molecule": "CCCCCCCCCCCCCCCc1cccc(O)c1C(=O)O", "note": "[anacardic acid]", "values": [{"measurement": "amount of insoluble TDP-43", "setting": "insoluble TDP-43", "value": "decreased"}, {"measurement": "length of neurite in ALS-MNs", "setting": "ALS-MNs [1]", "value": "significantly increased"}, {"measurement": "expression level of NEFL", "setting": "NEFL", "value": "increased"}, {"measurement": "expression level of NEFM", "setting": "NEFM", "value": "increased"}, {"measurement": "factors relating to intermediate filament cytoskeleton, intermediate filament and keratin filament", "setting": "[2]", "value": "increased"}, {"measurement": "factors relating to translation, RNP complex, RNA binding, RNA metabolism pathway, RNA processing, RNA splicing and spliceosomal complex", "setting": "[2]", "value": "decreased"}, {"measurement": "TNFα/NF-κB, andorogen receptor and α6β4 integrin pathways", "setting": "[3]", "value": "decreased"}, {"measurement": "amount of MDA-modified protein in the total protein", "setting": "ALS-MNs [4]", "value": "decreased the amount"}]}, {"molecule": "CO[C@]1(C)C[C@@]2(CO2)[C@H](O)[C@@H](/C=C/C(C)=C/C[C@@H]2O[C@H](C)[C@H](NC(=O)/C=C\\[C@H](C)OC(C)=O)C[C@@H]2C)O1", "note": "[splicesostatin A]", "values": [{"measurement": "suppression of arsenite-induced cell death of ALS-MNs", "setting": "ALS-MNs [5]; 100 ng/ml", "value": "did not show such action"}]}, {"molecule": "CC(/C=C/C(=O)NO)=C\\[C@@H](C)C(=O)c1ccc(N(C)C)cc1", "note": "[trichostatin A]", "values": [{"measurement": "suppression of arsenite-induced cell death of ALS-MNs", "setting": "ALS-MNs [5]; 3 μM", "value": "did not show such action"}]}, {"molecule": "arsenite", "values": [{"measurement": "RNA granule formation", "setting": "ALS-MNs [6]", "value": "promotion"}, {"measurement": "insoluble TDP-43", "setting": "ALS-MNs [6]", "value": "increase"}, {"measurement": "number of cells subjected to EthD-1-positive injury", "setting": "ALS-MNs [6]", "value": "significantly high"}]}]}
